Assay results as given in patent US5721213A, “Peptides, active as inhibitors of platelet aggregation” (Nippon Steel Corporation, priority 1993, dated 1998).
Non-standard residues stand in square brackets, D forms with d. Residues, ends and D or L forms follow the SMILES beside them. Sar = CNCC(=O)O

What was measured:
mouse = assay: acute toxicity test; format: in vivo; conditions: intravenously injected, 100 mg/Kg
platelet aggregation = conditions: times as strong as RGDS; cited from earlier work
[1] = system: platelets activated by ADP; conditions: 400 μM; cited from earlier work

## C[C@H](NC(=O)[C@H](CO)NC(=O)[C@@H]1CCCN1)C(=O)N(C)CC(=O)N[C@@H](CC(=O)O)C(=O)N[C@@H](Cc1c[nH]c2ccccc12)C(=O)O [Example 1, Pro-Ser-Ala-Sar-Asp-Trp-OH] (H-PSA[Sar]DW-OH)
mouse
  acute toxicity: no toxicity was observed

## arginine-glycine-aspartic acid-phenylalanine [RGDF]
Platelet aggregation
  platelet aggregation-inhibiting activity relative to RGDS: 4-5 times

## glycine-arginine-glycine-aspartic acid-serine-proline [GRGDSP]
[1]
  inhibition of aggregation of platelets activated by ADP: completely inhibited
